Columns and labels:
[1] = biological target: T1, Recombinant human protein tyrosine phosphatase 1B (Homo sapiens, UniProt P18031); assay: Protein tyrosine phosphatase 1B inhibitory activity (malachite green, phosphorylated insulin receptor peptide substrate); type: biochemical; conditions: recombinant human PTP1B, 60 min room temperature, absorbance 650 nm
T1 construct: purchased UBI
T1 sequence (P18031 1-435): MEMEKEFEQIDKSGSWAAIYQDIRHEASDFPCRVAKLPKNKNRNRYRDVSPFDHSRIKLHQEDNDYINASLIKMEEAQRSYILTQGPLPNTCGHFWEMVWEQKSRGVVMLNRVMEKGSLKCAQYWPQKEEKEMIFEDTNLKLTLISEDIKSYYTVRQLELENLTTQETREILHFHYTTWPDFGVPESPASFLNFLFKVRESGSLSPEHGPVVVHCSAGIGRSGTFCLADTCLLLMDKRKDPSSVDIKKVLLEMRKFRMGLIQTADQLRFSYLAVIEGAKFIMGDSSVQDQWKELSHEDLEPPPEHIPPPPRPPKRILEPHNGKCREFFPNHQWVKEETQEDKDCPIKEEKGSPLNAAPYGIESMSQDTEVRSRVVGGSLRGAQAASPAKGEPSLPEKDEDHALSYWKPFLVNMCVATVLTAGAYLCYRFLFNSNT
Method: Preparation of Assay Buffer:
A 50 mM Tris-HCl buffer (pH 7.5), 50 mM NaCl and 3 mM dithiothreitol (DTT) were prepared.
[…] 0.1, 0.3, 1, 3 and 10 μM of the test compound were prepared and diluted with the above-mentioned assay buffer to the final dimethyl sulfoxide (DMSO) concentration of not more than 1%. As the control, the assay buffer was used.
Preparation of Substrate:
Recombinant human protein tyrosine phosphatase 1B (manufactured by UBI) was diluted with the above-mentioned assay buffer (1.2 ng/25 μl).
The sample (10 μl) prepared as mentioned above and a substrate (25 μl) were successively added to a 96 well plate, and the enzyme (25 μl) prepared as mentioned above was added and mixed. The mixture was incubated at room temperature for 60 min and a malachite green (120 μl, Biomol), which is a color reagent, was added. The mixture was further incubated at room temperature for 20 min to allow for color development. An absorbance at 650 nm was measured on a plate reader based on which the protein tyrosine phosphatase 1B inhibitory activity of the test compound was evaluated.

Row | Structure (SMILES) | melting point | IC50 [1]
1 | CCCC(CCC)c1ccc(OCc2ccc(-c3ccc(CN(CC(=O)O)Cc4c[nH]c(-c5ccccc5)n4)s3)cc2)cc1 [Example 4-94] | 131.8 to 137.6 °C | 0.12 µM
2 | CN(Cc1ccc([C@H]2CC[C@H](C)CC2)cc1)c1ccc(-c2csc(CN3CCC(C(=O)O)(c4ccccc4)CC3)n2)cc1 [Example 3-69] | 229 to 231 °C | 0.16 µM
3 | CCCC(CCC)c1ccc(OCc2ccc(-c3ccc(CN(CC(=O)O)c4nc(-c5ccc(Cl)cc5)cs4)s3)cc2)cc1 [Example 4-107] | 116 to 117.6 °C | < 0.1 µM
4 | CCCC(CCC)c1ccc(COc2ccc(-c3csc(CN4CCC(c5ccc(C(=O)O)cc5)CC4)n3)cc2)cc1 [Example 1-161] | 191 to 193 °C | 0.18 µM
5 | CCCC(CCC)c1ccc2c(c1)nc(-c1csc(COc3ccc(C(=O)O)cc3)n1)n2Cc1ccc(C(C)C)cc1 [Example 1-158] | 147 to 152 °C | 0.29 µM
6 | CCCC(CCC)c1ccc(Cn2cc(-c3csc(CN4CCc5ccc(C(=O)O)cc5C4)n3)c3ccccc32)cc1 [Example 1-166] | 124 to 128 °C | 0.31 µM
7 | CCCC(CCC)c1ccc(OCc2ccc(-c3csc(CN(CC(=O)O)Cc4nc5ccccc5s4)c3)cc2)cc1 [Example 4-88] | 150.9 to 152.8 °C | < 0.1 µM
8 | CCCC(CCC)c1ccc(OCc2ccc(-c3csc(CSc4ccc(C(=O)O)cc4)c3)cc2)cc1 [Example 4-60] | 133.9 to 135.1 °C | < 0.1 µM
9 | CCCC(CCC)c1ccc(OCc2ccc(-c3csc(CN(CC(=O)O)Cc4ccc5[nH]ccc5n4)c3)cc2)cc1 [Example 4-90] | 203.4 to 205.3 °C | 0.16 µM
10 | CCN(C[C@H]1CC[C@H](c2ccc(C(C)(C)C)cc2)CC1)c1ccc(-c2csc(CN3CCC(c4ccc(C(=O)O)cc4)CC3)c2)cc1 [Example 4-68] | 225 to 229 °C (dec.) | < 0.1 µM
11 | CCCC(CCC)c1ccc(OCc2ccc(-c3ccc(C(=O)N4CCC(c5ccc(C(=O)O)cc5)CC4)s3)cc2)cc1 [Example 4-53] | 176 to 178 °C | 0.07 µM
12 | C[C@H]1CC[C@H](c2ccc(COc3ccc(-c4ccc(CN5CCN(c6ccc(C(=O)O)cc6)CC5)s4)cc3)cc2)CC1 [Example 4-74] | 242.4 to 265.9 °C | 0.11 µM
13 | C[C@H]1CC[C@H](c2ccc(COc3ccc(-c4ccc(CN(CC5CCCCC5)C(=O)Nc5ccc(C(=O)O)cc5)s4)cc3)cc2)CC1 [Example 4-80] | 168 to 169.9 °C | < 0.1 µM
14 | CCCC(CCC)c1ccc(OCc2ccc(-c3ccc(C(=O)N(CC(=O)O)Cc4nc5ccccc5n4C)s3)cc2)cc1 [Example 4-42] | 185 to 188 °C | 0.17 µM
15 | CN(Cc1ccc(C2CCC(C)(C)CC2)cc1)c1ccc(-c2csc(CN(CC(=O)O)Cc3ccccc3)n2)cc1 [Example 3-35] | – | 0.073 µM
16 | CCCC(CCC)c1ccc(OCc2ccc(-c3ccc(C(=O)N(CC(=O)O)Cc4ccc(N(C)C)cc4)s3)cc2)cc1 [Example 4-45] | 137 to 139 °C | 0.27 µM
17 | CN(Cc1ccc([C@H]2CC[C@H](C)CC2)cc1)c1ccc(-c2csc(CN3Cc4ccccc4CC3C(=O)O)n2)cc1 (stereo partly shown) [Example 3-71] | 202 to 205 °C | 0.095 µM
18 | CCCC(CCC)c1ccc(Cn2cc(-c3csc(CNc4cccc(C(=O)O)c4)n3)c3ccccc32)cc1 [Example 1-167] | 83 to 85 °C | 0.41 µM
19 | CCCC(CCC)c1ccc(OCc2ccc(-c3csc(COc4ccc(C(=O)O)cc4)c3)cc2)cc1 [Example 4-58] | 194.2 to 195.5 °C | 0.19 µM
20 | CCCC(CCC)c1ccc(OCc2ccc(-c3ccc(CN(CC(=O)O)S(=O)(=O)c4ccc(Cl)s4)s3)cc2)cc1 [Example 4-100] | 151.2 to 154.4 °C | < 0.1 µM
21 | CCCC(CCC)c1ccc(OCc2ccc(-c3csc(CN(CC(=O)O)C(=O)c4ccc(C(C)C)cc4)c3)cc2)cc1 [Example 4-70] | 109 to 111 °C | 0.17 µM
22 | CCCC(CCC)c1ccc(OCc2ccc(-c3ccc(CN(CC(=O)O)Cc4nc5ccccc5n4C)s3)cc2)cc1 [Example 4-1] | – | 0.15 µM
23 | CCCC(CCC)c1ccc(OCc2ccc(-c3csc(CN(C)S(=O)(=O)c4ccc(C(=O)O)cc4)n3)cc2)cc1 [Example 1-50] | – | 0.14 µM
24 | CCCC(CCC)c1ccc(OCc2ccc(-c3csc(CN(CC(=O)O)Cc4nccn4Cc4ccccc4)c3)cc2)cc1 [Example 4-89] | 135.2 to 136 °C | 0.49 µM

Row | Structure (SMILES) | melting point | IC50 [1]
25 | CCCC(CCC)c1ccc(Cn2cc(-c3csc(Cn4cc(C(=O)O)c5ccccc54)n3)c3ccccc32)cc1 [Example 1-182] | 148 to 152 °C | 0.19 µM
26 | CCCC(CCC)c1ccc(OCc2ccc(-c3ccc(CN(CC(=O)O)Cc4nc5ccccc5n4CC(=O)N(CC)CC)s3)cc2)cc1 [Example 4-101] | 194.8 to 197 °C | 0.1 µM
27 | CCCC(CCC)c1ccc(Cn2cc(-c3csc(COc4ccc(C(=O)O)cc4)n3)c3ccccc32)cc1 [Example 1-157] | 199 to 200 °C | 0.17 µM
28 | CCCC(CCC)c1ccc(CN(C)c2ccc(-c3csc(CN(C)[C@H](C(=O)O)c4ccccc4)n3)cc2)cc1 [Example 3-87] | 146 °C | 0.21 µM
29 | CCCC(CCC)c1ccc(OCc2ccc(-c3ccc(C(=O)N(CC(=O)O)Cc4ccc(C(C)C)cc4)s3)cc2)cc1 [Example 4-44] | 134 to 136 °C | 0.12 µM
30 | CCCC(CCC)c1ccc(OCc2ccc(-c3csc(CN(CC(=O)O)Cc4nc5ccccc5n4C)c3)cc2)cc1.Cl [Example 4-54] | 165.7 to 166.8 °C | 0.14 µM
31 | Cl.O=C(O)CN(Cc1ccccc1)Cc1ccc(-c2cn(Cc3ccc(C4CCCCC4)cc3)c3ccccc23)s1 [Example 4-63] | 161 to 164.3 °C | 0.42 µM
32 | Cl.O=C(O)C1(c2ccccc2)CCN(Cc2ccc(-c3cn(Cc4ccc(C5CCCCC5)cc4)c4ccccc34)s2)CC1 [Example 4-62] | 227.3 to 233.6 °C | 0.45 µM
33 | CCCC(CCC)c1ccc(OCc2ccc(-c3csc(CN(CC(=O)O)S(=O)(=O)N(C)c4ccccc4)c3)cc2)cc1 [Example 4-64] | 139 to 140.2 °C | 0.24 µM
34 | CCCC(CCC)c1ccc(OCc2ccc(-c3ccc(CN(CC(=O)O)Cc4ccc(SC)cc4)s3)cc2)cc1 [Example 4-78] | 202.7 to 204.3 °C | 0.38 µM
35 | CCCC(CCC)c1ccc(OCc2ccc(-c3csc(COc4cc(C(=O)O)ccc4N(C)S(C)(=O)=O)c3)cc2)cc1 [Example 4-59] | – | 0.18 µM
36 | Cc1ccc(OCc2ccc(C3CCCCC3)cc2)c(-c2csc(CN(C(=O)C(=O)O)c3ccc4nc(C)sc4c3)c2)c1 [Example 4-104] | 115.9 to 121.1 °C | 0.2 µM
37 | CCCC(CCC)c1ccc(OCc2ccc(-c3csc(COc4cc(C(=O)O)ccc4NC(=O)C(C)C)c3)cc2)cc1 [Example 4-57] | 153.7 to 154.9 °C | 0.17 µM
38 | CCN(Cc1ccc(C2CCCCC2)cc1)c1ccc(-c2ccc(CN(CCOc3ccccc3)CC(=O)O)s2)cc1 [Example 4-67] | 141 to 144 °C | 0.23 µM
39 | CCCC(CCC)c1ccc(OCc2ccc(-c3csc(CN(CC(=O)O)C(=O)COc4ccc(C(C)C)cc4)c3)cc2)cc1 [Example 4-69] | 146 to 152 °C | 0.15 µM
40 | CCCC(CCC)c1ccc(OCc2ccc(-c3csc(CN(CC(=O)O)Cc4nc5ccccc5n4C)c3)cc2)cc1 [Example 4-30] | – | 0.17 µM
41 | CCCC(CCC)c1ccc(OCc2ccc(-c3csc(CN(CC(=O)O)C(=O)N(C)c4ccccc4)c3)cc2)cc1 [Example 4-72] | – | 0.29 µM
42 | CCCC(CCC)c1ccc(OCc2ccc(-c3csc(COc4cc(C(=O)O)ccc4NC(=O)CN(C)C)c3)cc2)cc1 [Example 4-56] | – | 0.2 µM
43 | CCCC(CCC)c1ccc(OCc2ccc(-c3ccc(CN(CC(=O)O)Cc4nc(C(C)(C)C)cs4)s3)cc2)cc1 [Example 4-35] | – | 0.087 µM
44 | CCCC(CCC)c1ccc(OCc2ccc(-c3ccc(C(=O)N4CCN(c5ccc(C(=O)O)cc5)CC4)s3)cc2)cc1 [Example 4-52] | – | 0.15 µM
45 | CN(Cc1ccc(C(=O)O)cc1)c1nc(-c2ccc(C(=O)Nc3ccc(C4CCCCC4)cc3)cc2)cs1 [Example 1-53] | – | 0.24 µM
46 | CCCC(CCC)c1ccc(OCc2ccc(-c3ccc(CN(CC(=O)O)C(c4ccccc4)c4ccccc4)s3)cc2)cc1 [Example 4-81] | – | < 0.1 µM
47 | CCCC(CCC)c1ccc(OCc2ccc(-c3ccc(C(=O)N(CC(=O)O)Cc4ncc(C(C)(C)C)s4)s3)cc2)cc1 [Example 4-43] | – | 0.16 µM
